{"source": "patent US20020151591A1", "about": "“Combination use of acetylcholinesterase inhibitors and GABAa inverse agonists for the treatment of cognitive disorders” (priority 2000, published 2002)", "test_system": "scopolamine-induced retention deficit in male Sprague Dawley rats", "test": "Scopolamine-induced memory deficit in the spatial water maze task", "format": "in vivo, rat", "details": "IV 5 minutes prior to scopolamine 0.125 mg/kg IP; sub-efficacious doses; retention tested one day after training; Fisher LSD p<0.05 vs PEG/scopolamine", "procedure": "Subjects: Animals used in these studies were naive male Sprague Dawley rats (SASCO St. Louis) weighing between 200-250 grams. Animals were housed in groups of three in a temperature (22° C.[…]) and humidity (40-70% relative humidity) controlled vivarium with a 12-hour light/dark cycle. Animals had ad lib access to food and water.\nDrugs: Aricept and said compound of Formula I were each dissolved in 50% polyethylene glycol (PEG), and scopolamine HCI (Sigma) was dissolved in 0.9% saline. Aricept and said compound of Formula I (alone or in combination) or 50% PEG was administered intravenously (IV) 5 minutes prior to scopolamine (0.125 mg/kg) or saline given intraperitoneally (IP). Training commenced 15 minutes after the IP injection. […]\nProcedure: An animal was initially placed on the platform in the tank for 20 seconds. […] For each trial during acquisition and retention, a computerized video tracking system recorded the latency (sec) to reach the submerged platform the total distance traveled (m) in the water maze, the number of zone (quadrant) transitions made, and the swim speed of the animal.\nData Analysis: A one-way ANOVA was conducted on the latency to locate the platform during retention testing. Tests for significant differences between individual treatment groups were assessed using a Fisher LSD test (p<0.05).", "data": [{"smiles": "COc1cc2c(cc1OC)C(=O)C(CC1CCN(Cc3ccccc3)CC1)C2", "note": "(stereo not shown) [Aricept, donepezil]", "values": [{"measurement": "attenuation of scopolamine-induced retention deficit (latency to locate the platform during retention testing)", "result": "did not significantly attenuate"}]}]}
